# Activity calls are given as the source filed them. The rule behind the calls is not given here.
# What was measured:
# [1] = Selectivity ratio of IC50 for equine serum BuChE to IC50 for electric eel AChE
# Acetylcholinesterase = Acetylcholinesterase (Electrophorus electricus, UniProt O42275); experiment: Inhibition of electric eel AChE preincubated for 6 mins followed by addition of acetylthiocholine iodide by Ellman's method
# Cholinesterase = Cholinesterase (Equus caballus, UniProt P81908); experiment: Inhibition of equine serum BuChE preincubated for 6 mins followed by addition of S-butyrylthiocholine iodide by Ellman's method
# SH-SY5Y [2] = experiment: Neuroprotective activity against amyloid beta (25 to 35 residues)-induced cell damage in human SH-SY5Y cells assessed as cell viability at 10 uM preincubated for 2 hrs followed by amyloid beta (25 to 35 residues) addition measured after 24 hrs by MTT assay (reference value: 62.3 %); format: functional; settings: for viability at 10 µM: read-out: Activity
# SH-SY5Y [3] = experiment: Neuroprotective activity against amyloid beta (25 to 35 residues)-induced cell damage in human SH-SY5Y cells assessed as recovery of cell viability at 10 uM preincubated for 2 hrs followed by amyloid beta (25 to 35 residues) addition measured after 24 hrs by MTT assay; format: functional
# SH-SY5Y [4] = experiment: Neuroprotective activity against amyloid beta (25 to 35 residues)-induced cell damage in human SH-SY5Y cells assessed as cell viability at 1 uM preincubated for 2 hrs followed by amyloid beta (25 to 35 residues) addition measured after 24 hrs by MTT assay (reference value: 62.3 %); format: functional; settings: for viability at 1 µM: read-out: Activity
# SH-SY5Y [5] = experiment: Neuroprotective activity against amyloid beta (25 to 35 residues)-induced cell damage in human SH-SY5Y cells assessed as recovery of cell viability at 1 uM preincubated for 2 hrs followed by amyloid beta (25 to 35 residues) addition measured after 24 hrs by MTT assay; format: functional
# HaCaT = experiment: Cytotoxicity against human HaCaT assessed as cell viability upto 400 uM after 24 hrs by MTT assay relative to control; format: cell-based
# NIH3T3 = experiment: Cytotoxicity against mouse NIH/3T3 assessed as cell viability upto 400 uM after 24 hrs by MTT assay relative to control; format: cell-based; settings: nih3t3, 24 h
# Cholinesterase, sequence (P81908 whole entry, the tested form may be a part): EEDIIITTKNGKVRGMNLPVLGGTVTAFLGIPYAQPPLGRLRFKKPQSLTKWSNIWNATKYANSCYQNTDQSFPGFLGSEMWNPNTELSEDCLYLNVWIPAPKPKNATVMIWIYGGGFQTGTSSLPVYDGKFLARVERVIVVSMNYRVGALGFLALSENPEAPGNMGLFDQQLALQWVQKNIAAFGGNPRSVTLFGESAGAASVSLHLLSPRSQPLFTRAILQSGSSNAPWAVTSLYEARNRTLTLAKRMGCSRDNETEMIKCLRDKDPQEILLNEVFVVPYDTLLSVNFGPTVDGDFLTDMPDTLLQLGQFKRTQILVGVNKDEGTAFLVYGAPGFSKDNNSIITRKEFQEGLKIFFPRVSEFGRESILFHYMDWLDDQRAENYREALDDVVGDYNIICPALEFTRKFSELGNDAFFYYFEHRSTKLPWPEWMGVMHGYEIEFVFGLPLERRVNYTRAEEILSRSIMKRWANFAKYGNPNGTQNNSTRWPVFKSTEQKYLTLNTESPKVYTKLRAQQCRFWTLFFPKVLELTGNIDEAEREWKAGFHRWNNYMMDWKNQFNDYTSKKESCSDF
# Acetylcholinesterase, sequence (O42275 whole entry): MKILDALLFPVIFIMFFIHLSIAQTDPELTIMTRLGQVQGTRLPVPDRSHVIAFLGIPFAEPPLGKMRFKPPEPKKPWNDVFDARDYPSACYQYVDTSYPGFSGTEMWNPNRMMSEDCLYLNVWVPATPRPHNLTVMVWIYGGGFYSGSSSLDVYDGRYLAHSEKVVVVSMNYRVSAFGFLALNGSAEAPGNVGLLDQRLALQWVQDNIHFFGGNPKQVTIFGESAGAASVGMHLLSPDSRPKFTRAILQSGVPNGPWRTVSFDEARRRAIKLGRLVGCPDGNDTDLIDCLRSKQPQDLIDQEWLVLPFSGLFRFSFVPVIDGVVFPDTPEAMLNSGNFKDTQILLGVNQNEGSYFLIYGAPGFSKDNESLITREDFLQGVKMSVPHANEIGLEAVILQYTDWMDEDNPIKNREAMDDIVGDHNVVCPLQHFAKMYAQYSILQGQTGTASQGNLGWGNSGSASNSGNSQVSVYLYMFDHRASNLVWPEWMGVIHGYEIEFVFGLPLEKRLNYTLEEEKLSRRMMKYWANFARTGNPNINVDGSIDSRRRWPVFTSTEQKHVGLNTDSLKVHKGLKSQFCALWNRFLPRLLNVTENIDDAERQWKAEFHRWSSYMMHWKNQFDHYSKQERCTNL
SMILES,Ratio IC50 [1],IC50 (Acetylcholinesterase) [µM],IC50 (Cholinesterase) [µM],other results
Cc1ccc(Cn2cc(-c3ccc(C)c(C(=O)NCCN4CCOCC4)c3)nn2)cc1,1.4,60.1,83.1,–
Cc1ccc(-c2cn(Cc3cccc(F)c3)nn2)cc1C(=O)NCCN1CCOCC1,1.2,30.1,60.8,–
Cc1ccc(-c2cn(Cc3cccc4ccccc34)nn2)cc1C(=O)NCCN1CCOCC1,1.58,46.2,72.9,–
COC(=O)/C=C/c1ccc(Cn2cc(-c3ccc(C)c(C(=O)NCCN4CCOCC4)c3)nn2)cc1,2,44.7,90.9,–
Cc1ccc(-c2cn(Cc3ccc(OC(F)(F)F)cc3)nn2)cc1C(=O)NCCN1CCOCC1,2,30.2,60.2,–
Cc1ccc(-c2cn(Cc3ccc(S(N)(=O)=O)cc3)nn2)cc1C(=O)NCCN1CCOCC1,1.5,30.3,45.5,–
Cc1ccc(-c2cn(Cc3ccc(C(F)(F)F)cc3)nn2)cc1C(=O)NCCN1CCOCC1,–,27.4,–,viability at 10 µM (SH-SY5Y [2]): 85.2%; Activity (SH-SY5Y [3]): 22.9%; Activity (SH-SY5Y [4]): inactive; Activity (SH-SY5Y [5]): inactive
O=C(O[C@@H]1Cc2c(O)cc(O)cc2O[C@@H]1c1cc(O)c(O)c(O)c1)c1cc(O)c(O)c(O)c1 [EPIGALOCATECHIN GALLATE],–,–,–,viability at 10 µM (SH-SY5Y [2]): 95.7%; Activity (SH-SY5Y [3]): 33.4%
Cc1ccc(-c2cn(Cc3ccc(F)cc3F)nn2)cc1C(=O)NCCN1CCOCC1,3.7,24.4,89.6,–
Cc1ccc(-c2cn(Cc3ccccc3F)nn2)cc1C(=O)NCCN1CCOCC1,2,39.3,47.2,–
Cc1ccc(-c2cn(Cc3ccc(C#N)cc3)nn2)cc1C(=O)NCCN1CCOCC1,7.6,12.1,92.8,viability at 10 µM (SH-SY5Y [2]): 78.9%; Activity (HaCaT): Non-Toxic; Activity (SH-SY5Y [3]): 16.6%; Activity (SH-SY5Y [4]): inactive; Activity (NIH3T3): Non-Toxic; Activity (SH-SY5Y [5]): inactive
Cc1cc(F)ccc1Cn1cc(-c2ccc(C)c(C(=O)NCCN3CCOCC3)c2)nn1,1.6,37.6,61,–
COc1ccc(Br)c(Cn2cc(-c3ccc(C)c(C(=O)NCCN4CCOCC4)c3)nn2)c1,1.2,40.8,50.8,–
Cc1ccc(-c2cn(Cc3ccc(F)c([N+](=O)[O-])c3)nn2)cc1C(=O)NCCN1CCOCC1,1.2,30.1,34.8,–
Cc1ccc(-c2cn(Cc3ccccc3C(F)(F)F)nn2)cc1C(=O)NCCN1CCOCC1,1.3,34.1,45.1,–
Cc1cc(C)cc(Cn2cc(-c3ccc(C)c(C(=O)NCCN4CCOCC4)c3)nn2)c1,0.9,64.2,56.2,–
Cc1ccc(-c2cn(Cc3ccc(F)cc3Cl)nn2)cc1C(=O)NCCN1CCOCC1,6.6,10.4,68.9,Activity (SH-SY5Y [2]): inactive; Activity (SH-SY5Y [3]): inactive
Cc1ccc(-c2cn(Cc3ccccc3Br)nn2)cc1C(=O)NCCN1CCOCC1,2.2,35.2,78.6,–
Cc1ccc(-c2cn(Cc3ccccc3Cl)nn2)cc1C(=O)NCCN1CCOCC1,1.1,31.3,34.5,–
C#Cc1ccc(C)c(C(=O)NCCN2CCOCC2)c1,–,> 100,–,–
Cc1ccc(-c2cn(Cc3ccc(Br)cc3)nn2)cc1C(=O)NCCN1CCOCC1,2.2,20.5,45.6,–
Cc1ccc(-c2cn(Cc3cccc(Cl)c3)nn2)cc1C(=O)NCCN1CCOCC1,1.1,32.6,36.3,–
Cc1ccc(-c2cn(Cc3cccc(Br)c3)nn2)cc1C(=O)NCCN1CCOCC1,2,28.4,40.3,–
Cc1ccc(-c2cn(Cc3ccc4ccccc4c3)nn2)cc1C(=O)NCCN1CCOCC1,12.6,7.23,90.8,viability at 10 µM (SH-SY5Y [2]): 96.5%; Activity (HaCaT): Non-Toxic; Activity (SH-SY5Y [3]): 34.2%; viability at 1 µM (SH-SY5Y [4]): 77.9%; Activity (NIH3T3): Non-Toxic; Activity (SH-SY5Y [5]): 15.6%
Cc1ccc(-c2cn(Cc3ccc(F)c(F)c3)nn2)cc1C(=O)NCCN1CCOCC1,6.2,15.4,95.4,viability at 10 µM (SH-SY5Y [2]): 89.4%; Activity (HaCaT): Non-Toxic; Activity (SH-SY5Y [3]): 27.1%; viability at 1 µM (SH-SY5Y [4]): 70.3%; Activity (NIH3T3): Non-Toxic; Activity (SH-SY5Y [5]): 8%
Cc1ccc(-c2cn(C)nn2)cc1C(=O)NCCN1CCOCC1,1.5,45.2,68.1,–
Cc1ccc(-c2cn(Cc3ccc(F)cc3)nn2)cc1C(=O)NCCN1CCOCC1,2.1,21.2,43.7,–
COC(=O)c1ccc(Cn2cc(-c3ccc(C)c(C(=O)NCCN4CCOCC4)c3)nn2)cc1,1.8,38.4,67.8,–
Cc1ccc(-c2cn(Cc3ccc([N+](=O)[O-])cc3)nn2)cc1C(=O)NCCN1CCOCC1,2.9,20.4,60.5,–
Cc1ccc(-c2cn(Cc3ccc(F)cc3Br)nn2)cc1C(=O)NCCN1CCOCC1,2.3,31.4,70.8,–
